Laboratory results published in patent publication US20220241409A1, “WATER SOLUBLE ADJUVANT AND COMPOSITION CONTAINING SAME” (Sumitomo Dainippon Pharma Co., Ltd., priority 2019, published 2022).

Tests used:
[1] = system: HLA-A*24:02 transgenic mouse; assay: In vivo adjuvant activity, CTL induction with vaccine e, IFNγ ELISPOT (Test 16); conditions: 0.4 nmol per body added to vaccine e versus no compound; twice
Method: The in vivo adjuvant activity of the compound of Example 2 was evaluated in the following procedure. To a vaccine prepared by mixing Peptide SEQ ID No. 18 prepared in Reference example 18 with Montanide ISA 51 VG (hereinafter, referred to as “vaccine e”) was added the compound prepared in Example 2 to prepare a vaccine. The vaccine was administered to a HLA-A*24:02 transgenic mouse, and the adjuvant activity of the vaccine was evaluated by the method of testing antigen-specific CTL induction. The TYAGCLSQIF in Peptide SEQ ID No. 18 corresponds to an antigen peptide derived from an HLA-A*24:02-restricted Or7c1 protein.
The character for inducing CTLs specific to the antigen peptide (SEQ ID No. 18) by vaccine e was evaluated by measuring whether IFNγ can be produced upon stimulation of splenocytes from the mouse with the peptide. In addition, the character for exerting in vivo adjuvant activity by the compound in Example 2 was evaluated by comparing the number of CTLs induced by vaccine e and the number of CTLs induced by the vaccine prepared by adding the compound prepared in Example 2 to vaccine e, and checking presence or absence of the increase on the number.
Specifically, Peptide of SEQ ID No. 18 was dissolved in DMSO, and then diluted with water for injection to concentrations of 3 mg/mL. […]

mouse splenocyte = assay: Activation of immune cells, mouse splenocyte cytokine/chemokine production (Test 5); assay type: cell-based; conditions: 200 nmol/L, one day, compared with only DMSO
Method: Splenocyte was derived from the spleen of a HLA-A*02:01 transgenic mouse, and cryopreserved. Cryopreserved mouse splenocyte was reconstituted, suspended in RPMI 1640 medium with 10% FBS, and seeded on a U-bottom 96 well plate at 4×10^5 cells/well. The compound prepared in Example 3 was added in the presence of 0.1% (v/v) DMSO to the wells at a final concentration of 200 nmol/L. The plate was incubated at 37° C. under an atmosphere of 5% CO2. One day after the incubation, the culture supernatant was collected. The concentration of cytokine and chemokine (GM-CSF, IFNγ, IL-6, IP-10, MCP-1, MIP-1α, MIP-1β, Rantes, and TNFα) which were included in each culture supernatant was measured with Milliplex Mouse Cytokine/Chemokine Magnetic Bead Panel kit and Luminex system in accordance with the manufacturer's protocol.
The results are shown in FIG. 3-A to FIG. 3-I. The white bar indicates the mean number of the concentration of cytokine and chemokine in the culture supernatant from three wells to which only DMSO was added, and the black bar indicates the mean number of the concentration of cytokine and chemokine in the culture supernatant from three wells to which the compound prepared in Example 3 was added. The compound prepared in Example 3 made the yield of cytokine and chemokine higher, compared with the case of only DMSO.

SMILES | CTL counts responsive to Peptide SEQ ID No. 18 [1] | yield of cytokine and chemokine (GM-CSF, IFNγ, IL-6, IP-10, MCP-1, MIP-1α, MIP-1β, Rantes, TNFα) (mouse splenocyte)
CCCCOc1nc(N)c2[nH]c(=O)n(Cc3ccc(CN(C)CCOCCOCCOCCOCCO)nc3)c2n1 [Example 2, 6-amino-2-butoxy-9-{[6-(16-hydroxy-2-methyl-5,8,11,14-tetraoxa-2-azahexadecan-1-yl)pyridin-3-yl]methyl}-7,9-dihydro-8H-purin-8-one-trifluoroacetate] | more | –
CCCCOc1nc(N)c2[nH]c(=O)n(Cc3ccc(CN(C)CCOCCOCCOCCOCCO)cc3)c2n1 [Example 3, 6-amino-2-butoxy-9-{[4-(16-hydroxy-2-methyl-5,8,11,14-tetraoxa-2-azahexadecan-1-yl)phenyl]methyl}-7,9-dihydro-8H-purin-8-one] | – | higher
